Experiment [1] relates to Beet Armyworm (Spodoptera exigua, LAPHEG). The experiment in a line: Bioassays on Beet Armyworm (BAW), 128-well diet tray assay. The experiment is classed as in vivo. The conditions noted are these: Beet Armyworm, Table ABC Biological Results, read-out: BAW (rating). The protocol: (§1) Certain molecules disclosed in this document were tested against BAW and CL using procedures described in the following examples. In the reporting of the results, the “BAW & CL Rating Table” was used (See Table Section).
Bioassays on BAW were conducted using a 128-well diet tray assay. One to five second instar BAW larvae were placed in each well (3 mL) of the diet tray that had been previously filled with 1 mL of artificial diet to which 50 μg/cm^2 of the test molecule (dissolved in 50 μL of 90:10 acetone-water mixture) had been applied (to each of eight wells) and then allowed to dry. Trays were covered with a clear self-adhesive cover, vented to allow gas exchange, and held at 25° C., 14:10 light-dark for five to seven days. Percent mortality was recorded for the larvae in each well; activity in the eight wells was then averaged. The results are indicated in the table entitled “Table ABC: Biological Results” (See Table Section).

The subject of experiment [2] is Cabbage Looper (Trichoplusia ni, TRIPNI). Nature of the experiment: Bioassays on Cabbage Looper (CL), 128-well diet tray assay. The format is in vivo. Conditions: Cabbage Looper, Table ABC Biological Results, read-out: CL (rating). The protocol: as §1
Bioassays on CL were conducted using a 128-well diet tray assay. One to five second instar CL larvae were placed in each well (3 mL) of the diet tray that had been previously filled with 1 mL of artificial diet to which 50 μg/cm^2 of the test molecule (dissolved in 50 μL of 90:10 acetone-water mixture) had been applied (to each of eight wells) and then allowed to dry. Trays were covered with a clear self-adhesive cover, vented to allow gas exchange, and held at 25° C., 14:10 light-dark for five to seven days. Percent mortality was recorded for the larvae in each well; activity in the eight wells was then averaged. The results are indicated in the table entitled “Table ABC: Biological Results” (See Table Section).

As for `O=C(CCSc1ccccc1)Nc1c(F)ccc(NC(=O)c2cc(NC(=O)[C@H]3[C@H](c4ccc(F)c(C(F)(F)F)c4)C3(Cl)Cl)ccc2Cl)c1F` [F20, 2-Chloro-5-((1R,3R)-2,2-dichloro-3-(4-fluoro-3-(trifluoromethyl)phenyl)cyclopropane-1-carboxamido)-N-(2,4-difluoro-3-(3-(phenylthio)propanamido)phenyl)benzamide], the pest or weed control at 50 µg/cm2 in experiment [1] and in experiment [2] was 50 to 100% each time.

Take `O=C(CCSC(F)(F)F)Nc1c(F)ccc(NC(=O)c2cc(NC(=O)[C@H]3[C@H](c4ccc(F)c(C(F)(F)F)c4)C3(Cl)Cl)ccc2Cl)c1F` [F22, 2-Chloro-5-((1R,3R)-2,2-dichloro-3-(4-fluoro-3-(trifluoromethyl)phenyl)cyclopropane-1-carboxamido)-N-(2,4-difluoro-3-(3-((trifluoromethyl)thio)propanamido)phenyl)benzamide]: the pest or weed control at 50 µg/cm2 in experiment [1] and in experiment [2] was 50 to 100% in each case.

On to `O=C(C[S+]([O-])C(F)(F)F)Nc1c(F)ccc(NC(=O)c2cc(NC(=O)[C@H]3[C@H](c4cc(Cl)c(Cl)c(Cl)c4)C3(Cl)Cl)ccc2Cl)c1F` (stereo partly drawn) [F26, 2-Chloro-5-((1R,3R)-2,2-dichloro-3-(3,4,5-trichlorophenyl)cyclopropane-1-carboxamido)-N-(2,4-difluoro-3-(2-((trifluoromethyl)sulfinyl)acetamido)phenyl)benzamide], for which the pest or weed control at 50 µg/cm2 in experiment [1] and in experiment [2] was 50 to 100% in each case.

As to `CC(C(=O)Nc1c(F)ccc(NC(=O)c2cc(NC(=O)[C@H]3[C@H](c4ccc(F)c(Cl)c4)C3(Cl)Cl)ccc2Cl)c1F)[S+]([O-])C(F)(F)F` (stereo partly drawn) [F27, 2-Chloro-5-((1R,3R)-2,2-dichloro-3-(3-chloro-4-fluorophenyl)cyclopropane-1-carboxamido)-N-(2,4-difluoro-3-(2-((trifluoromethyl)sulfinyl)propanamido)phenyl)benzamide], the pest or weed control at 50 µg/cm2 in experiment [1] and in experiment [2] was 50 to 100% throughout.

`O=C(C[S+]([O-])C(F)(F)F)Nc1c(F)ccc(NC(=O)c2cc(NC(=O)[C@H]3[C@H](c4ccc(F)c(Cl)c4)C3(Cl)Cl)ccc2Cl)c1F` (stereo partly drawn) [F28, 2-Chloro-5-((1R,3R)-2,2-dichloro-3-(3-chloro-4-fluorophenyl)cyclopropane-1-carboxamido)-N-(2,4-difluoro-3-(2-((trifluoromethyl)sulfinyl)acetamido)phenyl)benzamide]: the pest or weed control at 50 µg/cm2 in experiment [1] and in experiment [2] was 50 to 100% in each case.

For the compound `O=C(C[S+]([O-])CC(F)(F)F)Nc1c(F)ccc(NC(=O)c2cc(NC(=O)[C@H]3[C@H](c4cc(Cl)c(Cl)c(Cl)c4)C3(Cl)Cl)ccc2Cl)c1F` (stereo partly drawn) [F29, 2-Chloro-5-((1R,3R)-2,2-dichloro-3-(3,4,5-trichlorophenyl)cyclopropane-1-carboxamido)-N-(2,4-difluoro-3-(2-((2,2,2-trifluoroethyl)sulfinyl)acetamido)phenyl)benzamide], the pest or weed control at 50 µg/cm2 in experiment [1] and in experiment [2] was 50 to 100% in each case.

Turning to `O=C(C[S+]([O-])CC(F)(F)F)Nc1c(F)ccc(NC(=O)c2cc(NC(=O)[C@H]3[C@H](c4ccc(Cl)c(Cl)c4)C3(Cl)Cl)ccc2Cl)c1F` (stereo partly drawn) [F30, 2-chloro-5-((R,3R)-2,2-dichloro-3-(3,4-dichlorophenyl)cyclopropane-1-carboxamido)-N-(2,4-difluoro-3-(2-((2,2,2-trifluoroethyl)sulfinyl)acetamido)phenyl)benzamide], the pest or weed control at 50 µg/cm2 in experiment [1] and in experiment [2] was 50 to 100% throughout.

With `O=C(C[S+]([O-])CC(F)(F)F)Nc1c(F)ccc(NC(=O)c2cc(NC(=O)[C@H]3[C@H](c4ccc(F)c(Cl)c4)C3(Cl)Cl)ccc2Cl)c1F` (stereo partly drawn) [F31, 2-Chloro-5-((1R,3R)-2,2-dichloro-3-(3-chloro-4-fluorophenyl)cyclopropane-1-carboxamido)-N-(2,4-difluoro-3-(2-((2,2,2-trifluoroethyl)sulfinyl)acetamido)phenyl)benzamide], the pest or weed control at 50 µg/cm2 in experiment [1] and in experiment [2] was 50 to 100% each time.

In the case of `O=C(C[S+]([O-])C(F)(F)F)Nc1c(F)ccc(NC(=O)c2cc(NC(=O)[C@H]3[C@H](c4ccc(F)c(C(F)(F)F)c4)C3(Cl)Cl)ccc2Cl)c1F` (stereo partly drawn) [F33, 2-chloro-5-((R,3R)-2,2-dichloro-3-(4-fluoro-3-(trifluoromethyl)phenyl)cyclopropane-1-carboxamido)-N-(2,4-difluoro-3-(2-((trifluoromethyl)sulfinyl)acetamido)phenyl)benzamide], the pest or weed control at 50 µg/cm2 in experiment [1] and in experiment [2] was 50 to 100% throughout.

On to `CC(C(=O)Nc1c(F)ccc(NC(=O)c2cc(NC(=O)[C@H]3[C@H](c4cc(Cl)c(Cl)c(Cl)c4)C3(Cl)Cl)ccc2Cl)c1F)S(=O)(=O)C(F)(F)F` (stereo partly drawn) [F35, 2-Chloro-5-((1R,3R)-2,2-dichloro-3-(3,4,5-trichlorophenyl)cyclopropane-1-carboxamido)-N-(2,4-difluoro-3-(2-((trifluoromethyl)sulfonyl)propanamido)phenyl)benzamide], for which the pest or weed control at 50 µg/cm2 in experiment [1] and in experiment [2] was 50 to 100% throughout.

For the compound `O=C(CS(=O)(=O)C(F)(F)F)Nc1c(F)ccc(NC(=O)c2cc(NC(=O)[C@H]3[C@H](c4cc(Cl)c(Cl)c(Cl)c4)C3(Cl)Cl)ccc2Cl)c1F` [F36, 2-Chloro-5-((1R,3R)-2,2-dichloro-3-(3,4,5-trichlorophenyl)cyclopropane-1-carboxamido)-N-(2,4-difluoro-3-(2-((trifluoromethyl)sulfonyl)acetamido)phenyl)benzamide], the pest or weed control at 50 µg/cm2 in experiment [1] and in experiment [2] was 50 to 100% throughout.

In the case of `CC(C(=O)Nc1c(F)ccc(NC(=O)c2cc(NC(=O)[C@H]3[C@H](c4ccc(Cl)c(Cl)c4)C3(Cl)Cl)ccc2Cl)c1F)S(=O)(=O)C(F)(F)F` (stereo partly drawn) [F37, 2-Chloro-5-((1R,3R)-2,2-dichloro-3-(3,4-dichlorophenyl)cyclopropane-1-carboxamido)-N-(2,4-difluoro-3-(2-((trifluoromethyl)sulfonyl)propanamido)phenyl)benzamide], the pest or weed control at 50 µg/cm2 in experiment [1] and in experiment [2] was 50 to 100% in each case.

On to `O=C(CS(=O)(=O)C(F)(F)F)Nc1c(F)ccc(NC(=O)c2cc(NC(=O)[C@H]3[C@H](c4ccc(Cl)c(Cl)c4)C3(Cl)Cl)ccc2Cl)c1F` [F38, 2-Chloro-5-((1R,3R)-2,2-dichloro-3-(3,4-dichlorophenyl)cyclopropane-1-carboxamido)-N-(2,4-difluoro-3-(2-((trifluoromethyl)sulfonyl)acetamido)phenyl)benzamide], for which the pest or weed control at 50 µg/cm2 in experiment [1] and in experiment [2] was 50 to 100% throughout.

On to `CC(C(=O)Nc1c(F)ccc(NC(=O)c2cc(NC(=O)[C@H]3[C@H](c4ccc(F)c(Cl)c4)C3(Cl)Cl)ccc2Cl)c1F)S(=O)(=O)C(F)(F)F` (stereo partly drawn) [F39, 2-Chloro-5-((1R,3R)-2,2-dichloro-3-(3-chloro-4-fluorophenyl)cyclopropane-1-carboxamido)-N-(2,4-difluoro-3-(2-((trif1uoromethyl)sulfonyl)propanamido)phenyl)benzamide], for which the pest or weed control at 50 µg/cm2 in experiment [1] and in experiment [2] was 50 to 100% each time.

Regarding `O=C(CS(=O)(=O)C(F)(F)F)Nc1c(F)ccc(NC(=O)c2cc(NC(=O)[C@H]3[C@H](c4ccc(F)c(Cl)c4)C3(Cl)Cl)ccc2Cl)c1F` [F40], the pest or weed control at 50 µg/cm2 in experiment [1] and in experiment [2] was 50 to 100% in each case.

Take `O=C(CS(=O)(=O)CC(F)(F)F)Nc1c(F)ccc(NC(=O)c2cc(NC(=O)[C@H]3[C@H](c4cc(Cl)c(Cl)c(Cl)c4)C3(Cl)Cl)ccc2Cl)c1F` [F41, 2-Chloro-5-((1R,3R)-2,2-dichloro-3-(3,4,5-trichlorophenyl)cyclopropane-1-carboxamido)-N-(2,4-difluoro-3-(2-((2,2,2-trifluoroethyl)sulfonyl)acetamido)phenyl)benzamide]: the pest or weed control at 50 µg/cm2 in experiment [1] and in experiment [2] was 50 to 100% throughout.

As to `O=C(CS(=O)(=O)CC(F)(F)F)Nc1c(F)ccc(NC(=O)c2cc(NC(=O)[C@H]3[C@H](c4ccc(Cl)c(Cl)c4)C3(Cl)Cl)ccc2Cl)c1F` [F42, 2-chloro-5-((1R,3R)-2,2-dichloro-3-(3,4-dichlorophenyl)cyclopropane-1-carboxamido)-N-(2,4-difluoro-3-(2-((2,2,2-trifluoroethyl)sulfonyl)acetamido)phenyl)benzamide], the pest or weed control at 50 µg/cm2 in experiment [1] and in experiment [2] was 50 to 100% each time.

Consider `O=C(CS(=O)(=O)CC(F)(F)F)Nc1c(F)ccc(NC(=O)c2cc(NC(=O)[C@H]3[C@H](c4ccc(F)c(Cl)c4)C3(Cl)Cl)ccc2Cl)c1F` [F43, 2-Chloro-5-((1R,3R)-2,2-dichloro-3-(3-chloro-4-fluorophenyl)cyclopropane-1-carboxamido)-N-(2,4-difluoro-3-(2-((2,2,2-trifluoroethyl)sulfonyl)acetamido)phenyl)benzamide], for which the pest or weed control at 50 µg/cm2 in experiment [1] and in experiment [2] was 50 to 100% in each case.

Source of the values: patent US20210015098A1, “MOLECULES HAVING PESTICIDAL UTILITY, AND INTERMEDIATES, COMPOSITIONS, AND PROCESSES, RELATED THERETO” (DOW AGROSCIENCES LLC, priority 2018, published 2021).
